Marks after values point to notes of the source that are not given here.
Experiments:
[1] = tested on: PCNA (Proliferating Cell Nuclear Antigen); test: Gene array qPCR, human dermal equivalent: PCNA; format: cell-based; settings: 1.0% 4AR in DMSO, human skin equivalent, 24 hours, mRNA by qPCR
Source text: (§1) In this gene array experiment, we examined the ability of 4AR at a one percent concentration in DMSO (where 100% DMSO served as the vehicle) to either stimulate or inhibit several important genes and quantify directly the transcribed messenger RNA (mRNA) levels by Taqman real time PCR. The test material was placed onto a biological barrier (human dermal equivalent) using a MatTek “ready-to-use” in vitro organotypic tissue equivalent, based on well-documented and validated protocols, using the EpiDerm™ Model EPI-200 Kit. The MatTek kits uses normal (non-transformed) donated human cells as the basis for all of its tissue equivalents. These cells are grown (cultured) in standard Millipore Millicell™ Single Well Tissue Culture Plate Inserts at the air liquid interface or ALI. Apical (top) surface of tissue is exposed to air allowing for direct application of test articles. […] Once the 4 AR test material penetrated the human skin barrier equivalent the gene chip was activated and subsequently mRNA levels were quantified and the results represent stimulation or inhibition of a specific gene.
(§2) To investigate the effects of 4AR on the expression of genes associated with the extracellular matrix (ECM) of the skin, qPCR experiments were conducted using the tissue cultures (model system described above) with subsequent quantification of mRNA levels from […] tissue/cells. […]

[2] = Body weight gain and food/water intake in rats, 21 days; format: in vivo, adult male Long-Evans rats
Procedure: (§3) Adult male Long-Evans rats were administered 4AR for 21 days. DMSO served as the control and 4AR was dissolved into DMSO at the following concentrations: 5.0 mg/kg body weight, 20.0 mg/kg body weight and 90.0 mg/kg body weight (n=12 per group).
After 10 days of receiving the treatments there was a significant decrease in body weight gain, by an average of approximately 17 grams, in the 90.0 mg/kg vs. the control values (525.0+5.1 vs. 542.1+6.2 grams, respectively. After 20 days on the treatments there was a significant decrease in body weight gain, by approximately 14 grams, in the 20.0 mg/kg vs. control values (566.0+4.7 vs. 551.8+3.7 grams). Finally, there was an even greater significant decrease in body weight gain between the 90.0 mg/kg vs. control values after 20 days on the treatments representing a 54.2 grams decrease (or 566.0+4.7 vs. 511.8+4.1 grams).

[3] = tested on: IL-1RII (interleukin 1RII); test: Gene array qPCR, human dermal equivalent: IL-1RII; format: cell-based; settings: 1.0% 4AR in DMSO, human skin equivalent, 24 hours, mRNA by qPCR
Source text: as §1, §2

[4] = tested on: Nerve growth factor; test: Gene array qPCR, human dermal equivalent: Nerve growth factor; format: cell-based; settings: 1.0% 4AR in DMSO, human skin equivalent, 24 hours, mRNA by qPCR
Source text: as §1, §2

[5] = tested on: IGF1 (Insulin-like growth factor 1); test: Gene array qPCR, human dermal equivalent: IGF1; format: cell-based; settings: 1.0% 4AR in DMSO, human skin equivalent, 24 hours, mRNA by qPCR
Source text: as §1, §2

[6] = target: T1, prostate type I 5α-reductase enzyme (Rattus norvegicus, UniProt P24008); test: Prostate 5α-reductase enzyme activity of treated rats; format: in vivo; settings: DMSO controls 8.7 + 0.6
T1 construct: from tissue; host or cells: prostate of adult male Long-Evans rats dosed with 4AR for 21 days
T1 sequence (P24008 1-259): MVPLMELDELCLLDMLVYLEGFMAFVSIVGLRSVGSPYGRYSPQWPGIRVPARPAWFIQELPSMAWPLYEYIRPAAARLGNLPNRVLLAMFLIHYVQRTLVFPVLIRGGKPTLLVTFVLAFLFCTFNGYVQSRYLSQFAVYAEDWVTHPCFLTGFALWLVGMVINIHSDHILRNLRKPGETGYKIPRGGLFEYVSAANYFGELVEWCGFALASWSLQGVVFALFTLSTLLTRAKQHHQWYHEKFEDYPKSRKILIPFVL
Procedure: as §3
Since, the 5a-reductase enzyme (which converts testosterone to 5a-dihydrotestosterone) is important in prostate health in reference to benign prostatic hyperplasia (BPH) and the treatment and prevention of prostate cancer, we determined if prostate type I 5α-reductase enzyme activity was impacted by these treatments by quantifying the enzymatic rates of each animal as described above (in this study there were approximately 10 animals per treatment group).

[7] = tested on: S100 Calcium binding protein A8; test: Gene array qPCR, human dermal equivalent: S100 A8; format: cell-based; settings: 1.0% 4AR in DMSO, human skin equivalent, 24 hours, mRNA by qPCR
Source text: as §1, §2

[8] = tested on: IL-1a (interleukin 1a); test: Gene array qPCR, human dermal equivalent: IL-1a; format: cell-based; settings: 1.0% 4AR in DMSO, human skin equivalent, 24 hours, mRNA by qPCR
Source text: as §1, §2

[9] = tested on: Tissue Inhibitor of metalloproteinases 2 (TIMP2); test: Gene array qPCR, human dermal equivalent: TIMP2; format: cell-based; settings: 1.0% 4AR in DMSO, human skin equivalent, 24 hours, mRNA by qPCR
Source text: as §1, §2

[10] = tested on: Type IV collagen alpha 2; test: Gene array qPCR, human dermal equivalent: Type IV collagen alpha 2; format: cell-based; settings: 1.0% 4AR in DMSO, human skin equivalent, 24 hours, mRNA by qPCR
Source text: as §1, §2

[11] = tested on: Elastin; test: Gene array qPCR, human dermal equivalent: Elastin; format: cell-based; settings: 1.0% 4AR in DMSO, human skin equivalent, 24 hours, mRNA by qPCR
Source text: as §1, §2

[12] = tested on: lysyl oxidase (LOX); test: Gene array qPCR, human dermal equivalent: LOX; format: cell-based; settings: 1.0% 4AR in DMSO, human skin equivalent, 24 hours, mRNA by qPCR
Source text: as §1, §2

[13] = tested on: Cytokeratin 2E; test: Gene array qPCR, human dermal equivalent: Cytokeratin 2E; format: cell-based; settings: 1.0% 4AR in DMSO, human skin equivalent, 24 hours, mRNA by qPCR
Source text: as §1, §2

[14] = tested on: Superoxide dismutase 1, soluble; test: Gene array qPCR, human dermal equivalent: SOD1; format: cell-based; settings: 1.0% 4AR in DMSO, human skin equivalent, 24 hours, mRNA by qPCR
Source text: as §1, §2

[15] = tested on: Procollagen III (alpha 1); test: Gene array qPCR, human dermal equivalent: Procollagen III; format: cell-based; settings: 1.0% 4AR in DMSO, human skin equivalent, 24 hours, mRNA by qPCR
Source text: as §1, §2

[16] = tested on: IL-6 (interleukin 6); test: Gene array qPCR, human dermal equivalent: IL-6; format: cell-based; settings: 1.0% 4AR in DMSO, human skin equivalent, 24 hours, mRNA by qPCR
Source text: as §1, §2

In the case of CC(=O)Oc1ccc(C=Cc2cc(O)cc(O)c2)cc1 [4AR, 3,5-dihydroxy-4′-acetoxy stilbene], the “PCNA increased by” value [1] was 5.4-fold with, the “decrease in body weight gain vs. control” value ([2]; 20.0 mg/kg, after 20 days) was “approximately 14 grams” and the body weight ([2]; 20.0 mg/kg, after 20 days, control 566.0+4.7) was 551.8+3.7 grams. The “decrease in body weight gain vs. control” value ([2]; 90.0 mg/kg, after 10 days) was “approximately 17 grams”, the body weight ([2]; 90.0 mg/kg, after 10 days, control 542.1+6.2) was 525.0+5.1 grams and the “decrease in body weight gain vs. control” value ([2]; 90.0 mg/kg, after 20 days) was 54.2 grams. For the same compound, the body weight ([2]; 90.0 mg/kg, after 20 days, control 566.0+4.7) was 511.8+4.1 grams, the “food/water intake among the treatment groups” value ([2]; 5.0, 20.0 and 90.0 mg/kg body weight, 21 days, vs DMSO control) was “no significant differences” and the “IL-1RII decreased by” value [3] was 1.9-fold. For the same compound, the “Nerve growth factor increased by” value [4] was 6.7-fold, the “IGF1 increased by” value [5] was 2.6-fold and the 5α-reductase enzyme activity ([6]; 5 mg/kg body weight) was 4.6 + 0.4* pmol/hour incubation/mg of protein. For the same compound, the 5α-reductase enzyme activity ([6]; 20 mg/kg body weight) was 3.3 + 0.3* pmol/hour incubation/mg of protein, the 5α-reductase enzyme activity ([6]; 90 mg/kg body weight) was 2.0 + 0.2* pmol/hour incubation/mg of protein and the “S100 Calcium binding protein A8 decreased by” value [7] was 2.7-fold. The “IL-1a decreased by” value [8] was 10.1-fold, the “TIMP2 increased by” value [9] was 1.3-fold and the “IV collagen alpha 2 increased by” value [10] was 1.8-fold. The “Elastin increased by” value [11] was 2.8-fold, the “Lysyl oxidase increased by” value [12] was 1.9-fold and the “CK 2E decreased by” value [13] was 3.5-fold with. The “Superoxide dismutase 1, soluble increased by” value [14] was 1.6-fold, the “Procollagen III increased by” value [15] was “by 2.2-fold” and the “IL-6 decreased by” value [16] was 35.2-fold.

Source: US20130123357A1, “Methods for Providing Enhanced Resveratrol Activity Using 4-Acetoxy-Resveratrol” (BRIGHAM YOUNG UNIVERSITY, priority 2010, published 2013)
